According to ChEMBL document CHEMBL1201862, “PubChem BioAssay data set” (2004):
Calls of active or inactive are those of the source.

Columns and labels:
Cytochrome P450 1A2 = molecular target: T1, Cytochrome P450 1A2 (Homo sapiens, UniProt P05177);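 further: PubChem cytochrome P450 panel assay, CYP1A2 panel member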
T1 sequence (P05177 whole entry): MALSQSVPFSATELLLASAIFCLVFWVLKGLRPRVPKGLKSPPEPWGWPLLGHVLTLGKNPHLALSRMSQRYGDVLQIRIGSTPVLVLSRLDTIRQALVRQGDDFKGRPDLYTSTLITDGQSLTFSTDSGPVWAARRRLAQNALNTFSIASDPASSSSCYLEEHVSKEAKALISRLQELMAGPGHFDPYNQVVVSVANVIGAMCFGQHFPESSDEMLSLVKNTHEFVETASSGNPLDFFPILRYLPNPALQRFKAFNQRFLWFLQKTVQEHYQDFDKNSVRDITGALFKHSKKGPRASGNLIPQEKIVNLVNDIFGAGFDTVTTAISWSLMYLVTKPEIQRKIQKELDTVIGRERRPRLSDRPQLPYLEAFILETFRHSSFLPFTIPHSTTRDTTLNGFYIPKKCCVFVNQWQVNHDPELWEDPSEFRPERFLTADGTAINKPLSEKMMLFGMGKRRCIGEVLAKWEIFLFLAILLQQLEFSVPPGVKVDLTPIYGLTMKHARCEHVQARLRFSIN

Cytochrome P450 3A4 = Cytochrome P450 3A4 (Homo sapiens, UniProt P08684);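 further: CYP3A4 tested as one member of a cytochrome P450 panel screen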
Cytochrome P450 2D6 = Cytochrome P450 2D6 (Homo sapiens, UniProt P10635);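 further: CYP2D6 member of a cytochrome P450 panel assay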
Cytochrome P450 2C19 = Cytochrome P450 2C19 (Homo sapiens, UniProt P33261); assay: Cytochrome panel assay with activity outcomes. Panel member name: p450-cyp2c19 Compounds with AC50 equal or less than 10 uM are considered active; type: functional; details: read-out: AC50
Cytochrome P450 2C9 = Cytochrome P450 2C9 (Homo sapiens, UniProt P11712)
[1] = luciferase reporter signal suppression in cells – H4 neuroglioma cells, luminescence, dose response (AID 1990); type: functional, cell-based
[2] = Luminescence Cell-Based Dose Response HTS to Identify Inhibitors of 5'UTR Stem-Loop Driven Prion Protein mRNA Translation in H4 Neuroglioblastoma Cells. [Related pubchem assays: 1827 (Project Summary), 1813 (Primary HTS)]; type: functional
[3] = molecular target: T2, Heat shock factor protein 1 (Mus musculus, UniProt P38532); assay: decrease of HSF1-responsive luciferase luminescence – cell-based, NIH3T3, dose retest, confirmation (AID 2382); type: functional;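 further: NIH3T3 fibroblasts with HSF1-driven luciferase reporter stressed by proteasome inhibitor MG132; luminescence from HSF1-driven luciferase expression after 8 hours of MG132 stress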
T2 sequence (P38532 whole entry): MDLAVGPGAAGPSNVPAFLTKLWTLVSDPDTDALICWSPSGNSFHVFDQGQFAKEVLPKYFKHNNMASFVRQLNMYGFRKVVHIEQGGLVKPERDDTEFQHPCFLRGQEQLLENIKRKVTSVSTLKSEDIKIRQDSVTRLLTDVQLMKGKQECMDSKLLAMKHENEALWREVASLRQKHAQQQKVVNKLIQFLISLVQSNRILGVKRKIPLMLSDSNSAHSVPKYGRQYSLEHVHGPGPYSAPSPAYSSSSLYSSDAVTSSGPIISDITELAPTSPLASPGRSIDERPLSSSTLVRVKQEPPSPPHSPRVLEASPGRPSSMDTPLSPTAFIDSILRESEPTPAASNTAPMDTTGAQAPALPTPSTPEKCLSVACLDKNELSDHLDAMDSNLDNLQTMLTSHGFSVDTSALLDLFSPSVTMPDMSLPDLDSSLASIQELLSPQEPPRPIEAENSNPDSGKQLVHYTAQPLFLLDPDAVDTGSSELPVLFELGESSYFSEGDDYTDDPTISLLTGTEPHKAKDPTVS

[4] = alpha-synuclein stem-loop luciferase translation blockers – H4 neuroglioma cells, luminescence, confirmation (AID 1988); type: functional, cell-based
[5] = Luminescence Cell-Based Dose Retest to Confirm Inhibitors of Cancer Stem Cells. [Related pubchem assays (depositor defined):AID2717, AID2721]; type: functional; details: Homo sapiens
[6] = system: Streptococcus sp. 'group A'; assay: Streptococcus pyogenes SK(-)GAS viability under kanamycin – luminescence, BacTiterGlo, confirmation, counter-screen for streptokinase expression inhibitor project, dose response (AID 1900); type: functional, organism-based
Streptokinase A = molecular target: T3, Streptokinase A (Streptococcus pyogenes serotype M1, UniProt P10520); assay: viability-normalized secreted streptokinase activity reduction – plasminogen activation absorbance, OD405, dose response (AID 1914); type: functional, Streptococcus pyogenes M1 GAS;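 further: secreted streptokinase activity via plasminogen activation per viability signal from cell pellet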
T3 sequence (P10520 whole entry): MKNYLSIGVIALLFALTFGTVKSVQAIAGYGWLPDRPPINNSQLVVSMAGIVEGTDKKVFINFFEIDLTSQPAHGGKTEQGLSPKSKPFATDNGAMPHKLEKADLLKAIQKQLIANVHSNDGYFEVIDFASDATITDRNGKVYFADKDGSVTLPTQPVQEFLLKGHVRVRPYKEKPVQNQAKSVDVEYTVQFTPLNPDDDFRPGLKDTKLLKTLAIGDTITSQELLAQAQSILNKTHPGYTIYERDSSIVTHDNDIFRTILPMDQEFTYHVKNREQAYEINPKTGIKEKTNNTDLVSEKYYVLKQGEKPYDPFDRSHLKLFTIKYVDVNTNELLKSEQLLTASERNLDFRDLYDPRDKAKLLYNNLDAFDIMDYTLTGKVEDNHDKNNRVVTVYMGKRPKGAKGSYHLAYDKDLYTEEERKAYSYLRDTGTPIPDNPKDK

Streptococcus = assay: GAS UMAA2166 growth inhibition – luminescence, BacTiterGlo, counter-screen for streptokinase expression inhibitor project, dose response (AID 1915); type: functional, organism-based;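 further: potency for reduction of bacterial viability or growth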
[7] = Trypanosoma cruzi growth suppression in host cells – NIH3T3 host cells, beta-gal luminescence, confirmation (AID 2044); type: functional, cell-based;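 further: intracellular parasites grown in NIH/3T3 mouse fibroblasts as host cells; luminescent beta-galactosidase reporter signal from transgenic T. cruzi replicating inside host cells; inhibitors lower the luminescence signal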
[8] = NIH3T3 cell viability loss – ATP luminescence, mouse fibroblasts, counter-screen, dose response (AID 2010); type: functional, cell-based;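 further: cells exposed to compound for about 90 hours before reading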
[9] = molecular target: T2, Heat shock factor protein 1; assay: enhancement of HSF1-driven luciferase signal – cell-based, NIH3T3, luminescence, dose retest, confirmation (AID 435004); type: functional;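 further: stress induced by proteasome inhibitor MG132 added 30 min after compound; luciferase reporter driven by HSF1 response element in NIH3T3 cells; actives raise luminescence as potentiators of the MG132 stress response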

Cytochrome P450 2C19, sequence (P33261 whole entry): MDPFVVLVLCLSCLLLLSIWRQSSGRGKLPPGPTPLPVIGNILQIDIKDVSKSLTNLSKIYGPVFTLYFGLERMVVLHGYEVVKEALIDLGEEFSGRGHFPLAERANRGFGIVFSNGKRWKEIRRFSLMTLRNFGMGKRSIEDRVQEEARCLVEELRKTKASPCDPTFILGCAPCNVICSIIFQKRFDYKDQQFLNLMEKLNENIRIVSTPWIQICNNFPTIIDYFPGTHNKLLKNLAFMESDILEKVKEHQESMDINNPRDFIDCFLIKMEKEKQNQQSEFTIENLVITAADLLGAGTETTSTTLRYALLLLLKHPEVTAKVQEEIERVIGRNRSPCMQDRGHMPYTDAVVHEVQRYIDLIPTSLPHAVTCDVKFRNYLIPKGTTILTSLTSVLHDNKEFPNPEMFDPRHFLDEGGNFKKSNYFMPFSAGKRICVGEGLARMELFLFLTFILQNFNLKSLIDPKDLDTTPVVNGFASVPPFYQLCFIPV
Cytochrome P450 2D6, sequence (P10635 whole entry): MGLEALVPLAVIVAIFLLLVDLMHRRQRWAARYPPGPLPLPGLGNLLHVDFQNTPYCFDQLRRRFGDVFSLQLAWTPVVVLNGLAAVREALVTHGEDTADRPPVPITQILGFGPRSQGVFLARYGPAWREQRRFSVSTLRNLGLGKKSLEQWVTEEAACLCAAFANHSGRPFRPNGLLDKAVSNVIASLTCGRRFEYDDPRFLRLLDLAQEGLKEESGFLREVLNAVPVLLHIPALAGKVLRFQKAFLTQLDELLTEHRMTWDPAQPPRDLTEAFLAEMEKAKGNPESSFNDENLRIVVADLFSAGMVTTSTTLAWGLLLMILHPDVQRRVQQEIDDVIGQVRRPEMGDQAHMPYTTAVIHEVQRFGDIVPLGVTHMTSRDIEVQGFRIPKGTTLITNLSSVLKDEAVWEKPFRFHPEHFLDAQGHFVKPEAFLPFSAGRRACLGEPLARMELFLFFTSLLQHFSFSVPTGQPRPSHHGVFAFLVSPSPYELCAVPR
Cytochrome P450 3A4, sequence (P08684 whole entry): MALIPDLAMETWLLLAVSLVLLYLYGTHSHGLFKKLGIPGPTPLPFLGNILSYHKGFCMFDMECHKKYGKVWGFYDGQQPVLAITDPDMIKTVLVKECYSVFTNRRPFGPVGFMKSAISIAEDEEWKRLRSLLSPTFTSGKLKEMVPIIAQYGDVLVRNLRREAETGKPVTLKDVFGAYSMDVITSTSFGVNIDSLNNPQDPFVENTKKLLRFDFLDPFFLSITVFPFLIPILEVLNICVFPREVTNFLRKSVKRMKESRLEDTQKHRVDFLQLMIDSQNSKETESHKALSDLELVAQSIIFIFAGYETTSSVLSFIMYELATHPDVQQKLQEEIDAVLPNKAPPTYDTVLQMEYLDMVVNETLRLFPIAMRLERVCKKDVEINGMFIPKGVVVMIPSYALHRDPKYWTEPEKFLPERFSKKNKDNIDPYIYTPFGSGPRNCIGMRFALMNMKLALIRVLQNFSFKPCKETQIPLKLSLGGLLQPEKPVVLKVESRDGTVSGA
Cytochrome P450 2C9, sequence (P11712 whole entry): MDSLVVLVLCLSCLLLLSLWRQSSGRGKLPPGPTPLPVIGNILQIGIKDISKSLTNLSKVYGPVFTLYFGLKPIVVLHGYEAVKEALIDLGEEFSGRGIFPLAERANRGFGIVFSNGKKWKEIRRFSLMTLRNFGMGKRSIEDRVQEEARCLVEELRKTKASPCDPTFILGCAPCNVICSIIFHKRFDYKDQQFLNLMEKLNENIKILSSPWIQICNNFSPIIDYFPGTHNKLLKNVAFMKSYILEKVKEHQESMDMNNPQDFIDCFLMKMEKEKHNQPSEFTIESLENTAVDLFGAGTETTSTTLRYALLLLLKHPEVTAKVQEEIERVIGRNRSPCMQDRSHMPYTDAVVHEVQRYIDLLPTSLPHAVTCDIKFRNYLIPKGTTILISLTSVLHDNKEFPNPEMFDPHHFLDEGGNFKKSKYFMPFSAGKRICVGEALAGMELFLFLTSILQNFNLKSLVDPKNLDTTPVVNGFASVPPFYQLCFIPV

COC(=O)[C@@]1(Cc2ccc(OC)cc2)[C@H]2c3cc(C(=O)N4CCCC4)n(Cc4ccc(Cl)c(C(F)(F)F)c4)c3C[C@H]2CN1C(=O)c1ccccc1
AC50 (Cytochrome P450 1A2): 12.6 µM (inconclusive) | AC50 (Cytochrome P450 3A4): 1.26 µM (inconclusive)

O=C(CSc1nnc(-c2ccco2)n1-c1ccccc1)NCc1ccco1
AC50 (Cytochrome P450 2D6): 14.1 µM (inconclusive)

COc1cccc(Cn2c(=O)c(CCc3ccccc3)nc3cncnc32)c1
AC50 (Cytochrome P450 2C19): 25.1 µM (inconclusive) | AC50 (Cytochrome P450 1A2): 12.6 µM (inconclusive) | AC50 (Cytochrome P450 2C9): 12.6 µM (inconclusive)

O=C(Nc1ccc2c(c1)OCCO2)NC1(C(F)(F)F)Oc2ccccc2O1
EC50 [1]: > 120 µM (not active) | EC50 [2]: > 120 µM (not active) | EC50 [3]: 12.5 µM (active) | EC50 [4]: > 120 µM (not active)

O=C(Nc1ccc2c(c1)OCO2)c1nn(-c2ccccc2)c(=O)c2ccccc12
EC50 [1]: > 120 µM (not active) | EC50 [2]: 24 µM (active) | EC50 [4]: > 120 µM (not active)

NCCCCCc1nnc(SCc2ccccc2Cl)o1
EC50 [1]: 14.7 µM (active) | EC50 [2]: 15.7 µM (active) | EC50 [4]: 12.8 µM (active) | AC50 (Cytochrome P450 1A2): 28.2 µM (inconclusive) | AC50 (Cytochrome P450 2C9): 25.1 µM (inconclusive)

COC(=O)[C@@]1(Cc2ccc(F)cc2)[C@H]2c3cc(C(=O)N(C)C)n(Cc4cccc5ccccc45)c3C[C@H]2CN1C(=O)c1ccccc1
AC50 (Cytochrome P450 1A2): 6.31 µM (inconclusive)

Cc1c(C2(O)CCCCC2)[nH]c2ccc(C(F)(F)F)cc12
AC50 [5]: 5.63 µM (active)

COCCN(C(=O)C(C)C)c1nnc(-c2ccc(C)cc2)s1
AC50 (Cytochrome P450 1A2): 12.6 µM (inconclusive)

Cc1ccc(CNc2nc(-c3cccs3)nc3ccccc23)cc1
AC50 [5]: 7 µM (active)

COc1ccc(N(CC(=O)Nc2ccc(S(=O)(=O)N3CCCCC3)cc2)S(C)(=O)=O)cc1OC
EC50 [1]: > 120 µM (not active) | EC50 [2]: > 120 µM (not active) | EC50 [4]: > 120 µM (not active)

c1cc(NC2CC2)nc(-c2ccoc2)n1
AC50 (Cytochrome P450 2D6): 39.8 µM (inconclusive)

CCCc1nc(NCc2ccccc2)c(C#N)c2c1CCCC2
EC50 [1]: > 120 µM (not active) | EC50 [6]: 14.9 µM (active) | EC50 [2]: > 120 µM (not active) | EC50 [4]: > 120 µM (not active) | EC50 (Streptokinase A): 3.06 µM (active) | EC50 (Streptococcus): 18.5 µM (active)

Cc1ccc(COc2ccccc2-c2cc(C(=O)N/N=C/c3cccnc3)[nH]n2)cc1
AC50 [5]: 0.778 µM (active)

Cn1c(C(=O)OC(C(=O)NC(C)(C)C)c2cccnc2)cc2sccc21 (configuration not stated)
EC50 [7]: 1.23 µM (active) | EC50 [8]: 48.4 µM (active) | EC50 [9]: > 260 µM (inactive)

Cc1cc2occ(CC(=O)NCc3cccs3)c2cc1C(C)C
EC50 [9]: > 260 µM (inactive)

Cc1ccc(-n2ccc(=O)c(-c3ccnc(SCc4cccc(Cl)c4)n3)n2)cc1
AC50 (Cytochrome P450 1A2): 14.1 µM (inconclusive)

CN1C(=O)/C(=C/c2cccc(Cl)c2)Sc2ccc(C(=O)NCc3cccnc3)cc21
AC50 [5]: 1.63 µM (active)

COC(=O)C1=C(C)N(Cc2ccc(C)cc2)C(=O)/C1=C\c1cc(OC)c(OC)c(OC)c1
EC50 [9]: 11.6 µM (active)

COc1ccc(C(=O)CC(=O)C(=O)Nc2cc(OC)c(OC)c(OC)c2)cc1
EC50 [9]: > 260 µM (inactive)

O=C(Nc1ccccc1)OCc1cc(-c2ccc(Cl)cc2)on1
AC50 (Cytochrome P450 2D6): 3.16 µM (inconclusive)

C/C(CCN1CCCCc2nc(C)c(C)cc21)=N\O[C@@H](C)c1cc(-c2c(C)cc(C)cc2C)no1
AC50 (Cytochrome P450 2D6): 3.16 µM (inconclusive)

O=c1c(-c2ccc(Cl)cc2)nc2cnc(N3CCNCC3)nc2n1Cc1ccc(F)cc1
AC50 (Cytochrome P450 2C19): 39.8 µM (inconclusive) | AC50 (Cytochrome P450 1A2): 15.8 µM (inconclusive) | AC50 (Cytochrome P450 3A4): 12.6 µM (inconclusive)

N#Cc1ccsc1NC(=O)COC(=O)CCCSc1nc2ccccc2s1
EC50 [1]: > 120 µM (not active) | EC50 [2]: > 120 µM (not active) | EC50 [4]: 16.1 µM (active)

Cc1ccc(-c2cc([C@H]3[C@@H]4C=CCC[C@@]4(C)C(=O)N3Cc3ccccc3)ccc2F)cc1
EC50 [6]: 5.4 µM (active) | EC50 (Streptokinase A): 4.92 µM (active) | EC50 (Streptococcus): 18 µM (active) | AC50 [5]: 3.16 µM (active)

CC1SC(N/N=C/c2cccc([N+](=O)[O-])c2)=NC1=O (configuration not stated)
AC50 [5]: 2.38 µM (active)

CC(=O)Nc1ccc2c(c1)N(C(=O)CN(C)C)c1ccccc1CC2
EC50 [9]: > 260 µM (inactive)

Nc1c(S(=O)(=O)c2ccccc2)c2nc3ccccc3nc2n1Cc1ccco1
AC50 (Cytochrome P450 1A2): 22.4 µM (inconclusive)

Brc1ccccc1Cn1c(-c2cncs2)nc2ccccc21
EC50 [1]: 17.1 µM (active) | EC50 [2]: > 120 µM (not active) | EC50 [4]: > 120 µM (not active)

CCN1CCSc2ccc(C(=O)NCc3cccc(Br)c3)cc21
EC50 [9]: > 260 µM (inactive)

Cc1cccn2c(=O)nc(SCC(=O)N3N=C(c4cccs4)CC3c3ccc(F)cc3)nc12 (configuration not stated)
EC50 [7]: 1.48 µM (active) | EC50 [8]: 11.6 µM (active) | EC50 [9]: > 260 µM (inactive)

O=c1c(-c2ccccc2)nc2cnc(N3CCNCC3)nc2n1Cc1ccc(F)cc1
AC50 (Cytochrome P450 2C19): 31.6 µM (inconclusive) | AC50 (Cytochrome P450 1A2): 20 µM (inconclusive)

N[C@H](C(=O)O)C1[C@H](C(=O)O)[C@H]1C(=O)O (some centres not stated)
AC50 (Cytochrome P450 2C19): 31.6 µM (inconclusive) | AC50 (Cytochrome P450 1A2): 31.6 µM (inconclusive)

COc1cccc(S(=O)(=O)NCc2ccc(C(=O)Nc3cccc(Cl)c3)cc2)c1
AC50 [5]: 4.31 µM (active)

Cc1ccc(C(=O)Cn2nc(C(=O)O)c3ccccc3c2=O)cc1C
EC50 [9]: > 260 µM (inactive)

CSc1nsc(/C=C/Nc2ccc(Cl)cc2)c1C#N
AC50 (Cytochrome P450 2C19): 3.55 µM (inconclusive) | AC50 (Cytochrome P450 1A2): 5.62 µM (inconclusive)

COc1ccc(CNC2CCSc3ccccc32)cc1OC (configuration not stated)
EC50 [9]: > 260 µM (inactive)
